Key:
[1] = target: T1, epitope-tagged (histidine6) recombinant MKP-1 (Homo sapiens, UniProt P28562); experiment: MKP-1 phosphatase inhibition; assay type: biochemical
T1 sequence (P28562 1-367): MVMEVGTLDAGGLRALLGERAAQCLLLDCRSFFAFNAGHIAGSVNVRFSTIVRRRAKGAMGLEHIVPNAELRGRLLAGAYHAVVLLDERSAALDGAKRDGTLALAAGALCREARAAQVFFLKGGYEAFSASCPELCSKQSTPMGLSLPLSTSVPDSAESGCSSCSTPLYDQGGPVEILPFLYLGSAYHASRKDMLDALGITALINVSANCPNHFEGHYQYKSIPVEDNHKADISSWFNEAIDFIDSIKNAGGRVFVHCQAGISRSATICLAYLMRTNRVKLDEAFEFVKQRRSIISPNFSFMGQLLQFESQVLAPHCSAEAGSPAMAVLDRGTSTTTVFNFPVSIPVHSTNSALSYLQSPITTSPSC

[2] = target: T2, epitope-tagged (histidine6) catalytic domain of human recombinant Cdc25B (Homo sapiens, UniProt P30305); experiment: Cdc25B phosphatase inhibition, catalytic domain; assay type: biochemical; conditions: for selectivity for Cdc25B as opposed to MKP-1 and MKP-3, in words: comparison of Cdc25B, MKP-1, MKP-3 assays; for Cdc25B activity in words: structure-activity discussion
T2 sequence (P30305 275-539 isoform P30305-3): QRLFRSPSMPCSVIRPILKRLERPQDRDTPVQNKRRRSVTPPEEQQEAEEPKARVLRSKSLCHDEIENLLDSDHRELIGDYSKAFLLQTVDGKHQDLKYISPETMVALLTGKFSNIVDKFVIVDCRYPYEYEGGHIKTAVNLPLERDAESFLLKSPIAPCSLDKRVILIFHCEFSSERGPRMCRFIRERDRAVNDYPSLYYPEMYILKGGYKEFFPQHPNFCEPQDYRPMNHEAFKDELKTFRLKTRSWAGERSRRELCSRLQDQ

Compound	IC50 [1]	selectivity for Cdc25B as opposed to MKP-1 and MKP-3, in words [2]	Cdc25B activity in words [2]
O=C1c2cc3c(cc2C(=O)C2OC12)CCCC3 (centres unmarked) [Compound 8]	> 50 µM		
O=C1c2ccccc2C(=O)c2ccccc21 [Compound 12, 9,10-anthraquinone]	> 50 µM		
O=C1C2=C(C(=O)c3c(O)cccc31)S(=O)(=O)CCN2 [Compound 17]		moderately selective for Cdc25B	
CCOC1=CC(=O)C(=O)c2ccccc21 [Compound 20]		relatively non-selective	
O=C1C2=C(C(=O)c3ccccc31)S(=O)(=O)CCN2 [Compound 16]		moderately selective for Cdc25B	
O=C1C=C(NCCO)C(=O)c2ccccc21 [Compound 18]	> 50 µM		complete loss of activity
CC1=C(NCCO)C(=O)c2ccccc2C1=O [Compound 19]	> 50 µM		complete loss of activity
O=C1C=CC(=O)C=C1 [Compound 10, 1,4-benzoquinone]	> 50 µM		complete loss of enzyme activity

— PMC2860877 (Bioorganic & medicinal chemistry, 2008)
